The structures appear in SMILES notation.

One compound from patent US9028463B2 (priority 2008, dated 2015) can be followed below.

One assay relates to type A strain (H1N1). The arrangement: species or system ddY mice. As to conditions: mouse, in vivo.
Another assay relates to type B strain. The arrangement: species or system ddY mice. As to conditions: mouse, in vivo.

Turning to `CCCCCCCCCCCCO` [lauryl alcohol], the “HI antibody titer for type A with lauryl alcohol as adjuvant in combination” value in the assay on type A strain (H1N1) is given as “HI antibody titer for type A increased”. In the assay with type B strain, the “HI antibody titer for type B with lauryl alcohol as adjuvant in combination” value is given as “remarkable effect was exerted on type B”.
